Experimental data from patent US7547729B2, “1,3-diphenylprop-2-en-1-one derivative compounds, preparation method thereof and uses of same” (Genfit, priority 2004, dated 2009).

Columns and labels:
PPARα = target: T1, PPARα (Homo sapiens, UniProt Q07869); experiment: PPARα/Gal4 transactivation system in COS-7 cells; assay type: cell-based; conditions: 24 hours
T1 construct: expressed in transfected cells; host or cells: COS-7 cells
T1 sequence (Q07869 239-466 limits assumed): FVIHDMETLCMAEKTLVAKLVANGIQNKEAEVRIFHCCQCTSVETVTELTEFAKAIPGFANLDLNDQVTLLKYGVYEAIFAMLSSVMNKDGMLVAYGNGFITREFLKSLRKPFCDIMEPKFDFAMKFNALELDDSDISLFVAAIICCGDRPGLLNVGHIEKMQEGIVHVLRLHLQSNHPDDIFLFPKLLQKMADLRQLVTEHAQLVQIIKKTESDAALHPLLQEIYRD
Description: (§1) COS-7 cells were incubated with different concentrations of the inventive compounds for 24 hours. The results are expressed as the induction factor (ratio of luminescent signal obtained with the compound and that observed without the compound) after the different treatments.
(§2) PPAR activation was tested in vitro in RK13 epitheloid or COS-7 cell lines by measuring the transcriptional activity of chimeras composed of the DNA binding domain of the yeast gal4 transcription factor and the ligand binding domain of the different PPARs. These latter results were then confirmed in cell lines according to the following protocols:
(§3) RK13 cells were from ECACC (Porton Down, UK), COS-7 cells were from the ATCC (American Type Culture Collection) and were grown in DMEM medium supplemented with 10% (VN) fetal calf serum, 100 U/ml penicillin (Gibco, Paisley, UK) and 2 mM L-glutamine (Gibco, Paisley, UK). The culture medium was changed every two days. Cells were kept at 37° C. in a humidified 95% air/5% CO2 atmosphere.
(§4) The plasmids pG5TkpGL3, pRL-CMV, pGal4-hPPARα, pGal4-hPPARγ, pGal4-hPPARδ and pGal4-φ have been described by Raspe, Madsen et al. (1999). The pGal4-mPPARα, pGal4-hPPARγ and pGal4-hPPARδ constructs were obtained by cloning into the pGal4-φ vector of PCR-amplified DNA fragments corresponding to the DEF domains of the human PPARα, PPARγ and PPARδ nuclear receptors.
(§5) RK13 cells were seeded in 24-well culture dishes at 5×10^4 cells/well, COS-7 cells in 96-well culture dishes at 5×10^4 cells/well and transfected for 2 hours with the reporter plasmid pG5TkpGL3 (50 ng/well), the expression vectors pGal4-φ, pGal4-mPPARα, pGal4-hPPARα, pGal4-hPPARγ, pGal4-hPPARδ (100 ng/well) and the transfection efficiency control vector pRL-CMV (1 ng/well) according to the previously described protocol (Raspe, Madsen et al. 1999), then incubated for 36 hours with the test compounds. At the end of the experiment, the cells were lysed (Gibco, Paisley, UK) and luciferase activity was determined with a Dual-Luciferase™ Reporter Assay System kit (Promega, Madison, Wis., USA) for RK13 cells and Steady Glow Luciferase (Promega) for COS-7 cells according to the supplier's instructions as previously described. The protein content of the cell extracts was then measured with the Bio-Rad Protein Assay (Bio-Rad, Munich, Germany) as directed by the supplier.

PPARγ = target: T2, PPARγ (Homo sapiens, UniProt P37231); experiment: PPARγ/Gal4 transactivation system in COS-7 cells; assay type: cell-based; conditions: 24 hours
T2 construct: expressed in transfected cells; host or cells: COS-7 cells
T2 sequence (P37231 238-503 limits assumed): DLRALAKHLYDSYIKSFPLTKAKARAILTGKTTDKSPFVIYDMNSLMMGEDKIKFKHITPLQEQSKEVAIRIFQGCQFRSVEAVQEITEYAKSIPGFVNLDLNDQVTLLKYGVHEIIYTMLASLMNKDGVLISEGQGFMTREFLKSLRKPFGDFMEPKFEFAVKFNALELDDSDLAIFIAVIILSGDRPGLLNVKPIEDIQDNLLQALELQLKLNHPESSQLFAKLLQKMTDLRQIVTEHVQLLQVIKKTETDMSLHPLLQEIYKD
Description: as §1, §2, §3, §4, §5

LDL = experiment: Protection against LDL oxidation by copper (conjugated diene formation); assay type: biochemical; conditions: for rate of diene formation: FIG. 2b, copper alone 2.2; for rate of LDL oxidation: FIG. 8b, absence of compounds 2.5; for kinetics of LDL oxidation (lag phase): FIG. 5a, no control value printed; for LDL oxidation rate: FIG. 5b, absence of compounds 2
Description: Unless otherwise indicated, the reagents were from Sigma (St Quentin, France). LDL were prepared according to the method described by Lebeau et al. (Lebeau, Furman et al. 2000).
The solutions of test compounds were prepared at 10^−2 M concentration in bicarbonate buffer (pH 9) and diluted in PBS to obtain final concentrations ranging from 0.1 to 100 μM
Prior to oxidation, EDTA was removed from the LDL preparation by dialysis. Oxidation then took place at 30° C. by adding 100 μl of 16.6 μM CuSO4 solution to 160 μL of LDL (125 μg protein/ml) and 20 μl of a test compound solution. The formation of dienes, the species under observation, was followed by measuring optical density at 232 nm in the samples treated with the compounds in the presence or absence of copper. Optical density at 232 nm was measured every 10 minutes for 8 hours in a thermostated spectrophotometer (Tecan Ultra 380). The analyses were performed in triplicate. The compounds were considered to have antioxidant activity when they induced a longer lag phase and reduced the rate of oxidation and the amount of dienes formed in comparison with the control sample.

[1] = FIG. 2a, 10^−4M, copper alone 132 minutes
[2] = FIG. 2c, 10^−4M, copper alone 511
[3] = FIG. 8a, 10^−4M, absence of compounds 67.3 minutes
[4] = FIG. 5c, 10^−4M, absence of compounds 386
[5] = FIG. 7a, 10^−4M, absence of compounds 67.3 minutes

Cc1cc(/C=C/C(=O)c2ccc(OCCCCCC3CCSS3)cc2)cc(C)c1OC(C)(C)C(=O)O (racemic) [compound 6, 1-(4-((R,S)-5-[1,2]dithiolan-3-ylpentyloxy)phenyl)-3-(4-carboxydimethylmethyloxy-3,5-dimethylphenyl)prop-2-en-1-one] gave an Induction factor (PPARα; 1 μM) of 5.48, an Induction factor (PPARα; 10 μM) of 7.01 and an Induction factor (PPARγ; 1 μM) of 4.12. The Induction factor (PPARγ; 10 μM) was 6.83, the lag phase (LDL; [1]) was 205 min and the “rate of diene formation” value (LDL; 10^−4M) was 1.7 nmol/min/mg. For the same compound, the “total amount of dienes formed” value (LDL; [2]) was 443 nmol/mg.
With Cc1cc(C(=O)/C=C/c2cc(C)c(OC(C)(C)C(=O)O)c(C)c2)cc(C)c1O [compound 4, 1-(4-Hydroxy-3,5-dimethylphenyl)-3-(4-carboxydimethylmethyloxy-3,5-dimethylphenyl)prop-2-ene-1-one] the Induction factor (PPARα; 1 μM) was 1.67, the Induction factor (PPARα; 10 μM) was 9.92 and the Induction factor (PPARγ; 1 μM) was 2.00. The Induction factor (PPARγ; 10 μM) was 5.82, the lag phase (LDL; [1]) was 401 min and the “rate of diene formation” value (LDL; 10^−4M) was 0.2 nmol/min/mg. The “total amount of dienes formed” value (LDL; [2]) was 138 nmol/mg.
Compound CSc1ccc(C(=O)/C=C/c2cc(Br)c(OC(C)(C)C(=O)O)c(Br)c2)cc1 [compound 8, 1-(4-Methylthiophenyl)-3-(4-carboxydimethylmethyloxy-3,5-dibromophenyl)prop-2-ene-1-one] has an Induction factor (PPARα; 1 μM) of 15.67, an Induction factor (PPARα; 10 μM) of 12.66 and an Induction factor (PPARγ; 1 μM) of 2.13. The Induction factor (PPARγ; 10 μM) was 2.74, the lag phase (LDL; [1]) was 169 min and the “rate of diene formation” value (LDL; 10^−4M) was 1.7 nmol/min/mg. For the same compound, the “total amount of dienes formed” value (LDL; [2]) was 474 nmol/mg.
With Cc1cc(/C=C/C(=O)c2ccc(OCCC3CCCCC3)cc2)cc(C)c1OC(C)(C)C(=O)O [compound 11, 1-(4-Cyclohexylethyloxyphenyl)-3-(4-carboxydimethylmethyloxy-3,5-dimethylphenyl)prop-2-en-1-one] the “lag phase (maximum)” value (LDL; FIG. 3a, 3.3×10^−5M, absence of compound 87.2 minutes) was 210 min and the lag phase (LDL; FIG. 3a, 10^−6 M, absence of compound 87.2 minutes) was 101.5 min.
For COc1c(C)cc(C(=O)/C=C/c2cc(C)c(OC(C)(C)C(=O)O)c(C)c2)cc1C [compound 17, 1-(4-Methoxy-3,5-dimethylphenyl)-3-(4-carboxydimethylmethyloxy-3,5-dimethylphenyl)prop-2-en-1-one], the lag phase (LDL; [3]) was 148 min and the “rate of LDL oxidation” value (LDL; 10^−4M) was 1.8 nmol/min/mg.
With CCCCCCOc1c(C)cc(C(=O)/C=C/c2cc(C)c(OC(C)(C)C(=O)O)c(C)c2)cc1C [compound 19, 1-(4-Hexyloxy-3,5-dimethylphenyl)-3-(4-carboxydimethylmethyloxy-3,5-dimethylphenyl)prop-2-en-1-one] the lag phase (LDL; FIG. 4a, 10^−4M, copper alone 61 minutes) was 92.5 min, the diene formation rate (LDL; FIG. 4b, 10^−4M, absence of compounds 1.9) was 1.6 nmol/min/mg of LDL and the “total amount of dienes formed” value (LDL; FIG. 4c, 10^−4M, absence of compound 370.9) was 346.6 nmol/mg of LDL.
Cc1cc(C)c(C(=O)/C=C/c2cc(C)c(OC(C)(C)C(=O)O)c(C)c2)cc1C [compound 25, 1-(2,4,5-Trimethylphenyl)-3-(4-carboxydimethylmethyloxy-3,5-dimethylphenyl)prop-2-en-1-one] was tested, and the “kinetics of LDL oxidation (lag phase)” value (LDL; 10^−4M) was 87.6 min, the LDL oxidation rate (LDL; 10^−4M) was 1.6 nmol/min/mg and the “total amount of dienes formed” value (LDL; [4]) was 365 nmol/mg.
In the case of Cc1cc(C(=O)/C=C/c2cc(C)c(OC(C)(C)C(=O)O)c(C)c2)cc(C)c1OCCSC1CCCCC1 [compound 27, 1-(4-Cyclohexylthioethyloxy-3,5-dimethylphenyl)-3-(4-carboxydimethylmethyloxy-3,5-dimethylphenyl)prop-2-en-1-one], the “kinetics of LDL oxidation (lag phase)” value (LDL; 10^−4M) is reported as 170.8 min, the LDL oxidation rate (LDL; 10^−4M) is reported as 0.8 nmol/min/mg and the “total amount of dienes formed” value (LDL; [4]) is reported as 374 nmol/mg.
COc1ccc(C(=O)/C=C/c2cc(C)c(OC(C)(C)C(=O)O)c(C)c2)cc1F [compound 35, 1-(4-Methoxy-3-fluorophenyl)-3-(4-carboxydimethylmethyloxy-3,5-dimethylphenyl)prop-2-en-1-one] showed an Induction factor (PPARα; 0.003 μM) of 1.41, an Induction factor (PPARα; 0.01 μM) of 1.54 and an Induction factor (PPARα; 0.03 μM) of 2.53. The Induction factor (PPARα; 0.1 μM) was 7.47, the Induction factor (PPARα; 0.3 μM) was 15.51 and the Induction factor (PPARα; 1 μM) was 24.33. For the same compound, the Induction factor (PPARα; 3 μM) was 23.70 and the Induction factor (PPARα; 10 μM) was 21.03.
In the case of COc1ccc(C(=O)/C=C/c2cc(C)c(OC(C)(C)C(=O)O)c(C)c2)cc1C [compound 37, 1-(4-Methoxy-3-methylphenyl)-3-(4-carboxydimethylmethyloxy-3,5-dimethylphenyl)prop-2-en-1-one], the Induction factor (PPARα; 0.01 μM) is reported as 1.54, the Induction factor (PPARα; 0.03 μM) is reported as 2.54 and the Induction factor (PPARα; 0.1 μM) is reported as 7.89. It also gave an Induction factor (PPARα; 0.3 μM) of 17.25, an Induction factor (PPARα; 1 μM) of 19.77 and an Induction factor (PPARα; 3 μM) of 16.89. For the same compound, the lag phase (LDL; FIG. 6a, 10^−4M, absence of compound 56 minutes) was 106 min, the oxidation rate (LDL; FIG. 6b, 10^−4M, absence of compound 2) was 1.8 nmol/min/mg of LDL and the “total amount of dienes formed” value (LDL; FIG. 6c, 10^−4M, absence of compound 360.0) was 326.9 nmol/mg of LDL.
COc1ccc(OC)c(C(=O)/C=C/c2cc(C)c(OC(C)(C)C(=O)O)c(C)c2)c1 [compound 41, 1-(2,5-Dimethoxyphenyl)-3-(4-carboxydimethylmethyloxy-3,5-dimethylphenyl)prop-2-en-1-one] was tested, and the lag phase (LDL; [5]) was 100 min and the “total amount of dienes formed” value (LDL; FIG. 7c, 10^−4M, absence of compounds 432.5) was 403 nmol/mg of LDL.
Cc1cc(C(=O)/C=C/c2cc(C)c(OC(C)(C)C(=O)O)c(C)c2)cc(C)c1OCCN1CCOCC1 [compound 43, 1-(3,5-Dimethyl-4-(morpholin-4-ylethyloxy)phenyl)-3-(4-carboxydimethylmethyloxy-3,5-dimethylphenyl)prop-2-en-1-one] was tested, and the lag phase (LDL; [3]) was 97 min and the “rate of LDL oxidation” value (LDL; 10^−4M) was 2.2 nmol/min/mg.
With COc1ccc(C(=O)/C=C/c2cc(C)c(OC(C)(C)C(=O)O)c(C)c2)cc1C(F)(F)F [compound 47, 1-(4-Methoxy-3-trifluoromethylphenyl)-3-(4-carboxydimethylmethyloxy-3,5-dimethylphenyl)prop-2-en-1-one] the lag phase (LDL; [5]) was 126.5 min.
